According to patent US8048873B2, “Synergistic pharmaceutical combination for the prevention or treatment of diabetes” (N-Gene Research Laboratories, Inc., priority 2001, dated 2011):

Tested on: New Zealand white rabbits
Experiment: Hyperinsulinaemic euglycaemic glucose clamp studies (insulin sensitivity by glucose infusion rate at steady state)
Type: in vivo, rabbit
Details: measured on 6th day
Method: Adult male New Zealand white rabbits weighing 3-3.2 kg, housed in an animal room (12-hour light/dark periods a day, temperature of 22-25° C., relative humidity of 50-70%) with one animal per pen, fed commercial laboratory chow and tap water ad libitum, were used throughout. The animals underwent surgery after a two-week adaptation period.
Surgery was performed under aseptic conditions. The rabbits were anaesthetized with an intravenous bolus of 10 mg/kg diazepam (Sigma, St. Louis, Mo., USA) and 5 mg/kg ketamine (EGIS Pharmaceuticals Ltd., Budapest, Hungary). […] Polyethylene catheters were inserted into two major branches of the jugular vein and the left carotid artery. The catheters were exteriorised through the back of the neck. These lines were kept patent by filling with sodium heparin solution (100 IU/ml).
Hyperinsulinaemic Euglycaemic Glucose Clamp Studies
Blood samples (0.3 ml) were taken from the arterial cannula for blood glucose concentration at 10 min intervals. […] When blood glucose had stabilized for at least 30 min, we defined this condition as steady state. In the steady state, additional blood samples (0.5 ml) were taken for plasma insulin determination at 10-min intervals. The glucose infusion rate (mg/kg/min) during steady state was used to characterize insulin sensitivity [DeFronzo R. A. et al., Am. […] The test compound(s) was/were administered to healthy and hypercholesterolaemic animals, respectively, perorally, in a single dose, daily, for five days, and the glucose infusion rates determined on the 6th day were averaged within each test group consisting of 6 animals. One group of the healthy and one of the hypercholesterolaemic animals was used as the control.
It is favourable that a higher amount of glucose should be needed at the given constant blood glucose level which indicates the enhanced effect of insulin.

## Cc1c(C)c2c(c(C)c1O)CCC(C)(COc1ccc(CC3SC(=O)NC3=O)cc1)O2 (racemic) [Troglitazone, (±)-5-[[4-[(3,4-dihydro-6-hydroxy-2,5,7,8-tetramethyl-2H-1-benzopyran-2-yl)methoxy]-phenyl]methyl]-2,4-thiazolidinedione]
Table 2, HC (hypercholesterolaemic) animals, troglitazone 75 mg/kg daily dose p.o. for five days
  Insulin sensitivity as characterized by the glucose infusion rate during steady state: 14.1 ± 1.33 mg/kg/min
Table 2, normal (healthy) animals, troglitazone 75 mg/kg daily dose p.o. for five days
  Insulin sensitivity as characterized by the glucose infusion rate during steady state: 14.3 ± 0.08 mg/kg/min

## CN(C)C(=N)N=C(N)N [Metformin, N,N-dimethylimidocarbonimidic diamide]
Table 1, HC (hypercholesterolaemic) animals, metformin 100 mg/kg daily dose p.o. for five days
  Insulin sensitivity as characterized by the glucose infusion rate during steady state: 11.7 ± 0.87 mg/kg/min
Table 1, normal (healthy) animals, metformin 100 mg/kg daily dose p.o. for five days
  Insulin sensitivity as characterized by the glucose infusion rate during steady state: 15.8 ± 0.83 mg/kg/min
